Results published in patent US20110009381A1, “SOLUBILIZED THIAZOLOPYRIDINES” (Sirtis Pharmaceuticals, Inc., priority 2007, published 2011).

Target: T1, SIRT1 (Homo sapiens, UniProt Q96EB6)
T1 sequence (Q96EB6 1-747): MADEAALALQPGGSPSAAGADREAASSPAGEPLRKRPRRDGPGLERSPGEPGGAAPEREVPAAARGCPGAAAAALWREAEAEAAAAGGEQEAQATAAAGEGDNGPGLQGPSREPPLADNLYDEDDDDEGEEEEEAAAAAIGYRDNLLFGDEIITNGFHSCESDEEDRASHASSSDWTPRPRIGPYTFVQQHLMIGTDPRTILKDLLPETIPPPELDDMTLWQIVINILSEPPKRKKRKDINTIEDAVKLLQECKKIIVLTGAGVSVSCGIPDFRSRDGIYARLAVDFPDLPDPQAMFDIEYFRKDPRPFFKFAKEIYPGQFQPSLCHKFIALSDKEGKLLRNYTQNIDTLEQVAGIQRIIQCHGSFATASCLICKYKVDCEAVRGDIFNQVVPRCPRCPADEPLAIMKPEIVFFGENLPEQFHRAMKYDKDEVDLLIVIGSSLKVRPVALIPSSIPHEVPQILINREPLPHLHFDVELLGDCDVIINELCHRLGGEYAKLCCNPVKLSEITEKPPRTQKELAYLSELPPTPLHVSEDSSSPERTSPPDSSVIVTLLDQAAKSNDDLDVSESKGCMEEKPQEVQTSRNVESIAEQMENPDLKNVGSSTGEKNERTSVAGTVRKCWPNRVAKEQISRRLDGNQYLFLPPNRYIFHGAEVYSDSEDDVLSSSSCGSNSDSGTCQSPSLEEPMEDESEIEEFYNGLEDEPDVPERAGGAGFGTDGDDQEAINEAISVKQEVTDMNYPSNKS
Assay: Mass spectrometry based assay to identify modulators of SIRT1 activity (deacetylation of p53-based acetylated peptide substrate)
Format: biochemical
Conditions: 10 nM SIRT1, 0.5 μM peptide substrate, 120 μM βNAD+, 25 minutes at 25° C.; for EC1.5: SIRT1 activation
Method in brief: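 Activation measured on His-tagged SIRT1 (10 nM, E. coli-expressed) deacetylating a 0.5 μM p53-derived acetyl-peptide with 120 μM βNAD^+ for 25 min at 25 °C, pH 8 Tris-acetate. After formic acid stop, mass spectrometry quantified acetylated versus deacetylated peptide, referenced to DMSO and nicotinamide controls. Reported as EC1.5 and maximum fold activation.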

Row | SMILES | FOLD ACT. (percent maximum fold activation) | EC1.5
1 | CCCCNc1cc(C(=O)Nc2ccccc2-c2nc3cccnc3s2)nc(-c2ccccc2)n1 [Compound 42] | C (Fold Activation<150%) | C (EC1.5>10 uM)
2 | CCN1CCN(c2cc(C(=O)Nc3ccccc3-c3nc4cccnc4s3)nc(-c3ccccc3)n2)CC1=O [Compound 150] | A (Fold activation≧300%) | A (EC1.5≧250 nM and ≦1 uM)
3 | COCCN(CCOC)c1cc(C(=O)Nc2ccccc2-c2nc3cccnc3s2)nc(-c2cccc(C)c2)n1 [Compound 143] | A (Fold activation≧300%) | A′ (EC1.5<250 nM)
4 | O=C(Nc1ccccc1-c1nc2cccnc2s1)c1cc(OCCO)nc(-c2ccccc2)n1 [Compound 80] | C (Fold Activation<150%) | C (EC1.5>10 uM)
5 | CCS(=O)(=O)CCNc1cc(C(=O)Nc2ccccc2-c2nc3cccnc3s2)nc(-c2ccccc2)n1 [Compound 74] | A (Fold activation≧300%) | A′ (EC1.5<250 nM)
6 | O=C(Nc1ccccc1-c1nc2cccnc2s1)c1cc(N2CCCNCC2)nc(-c2ccccc2)n1 [Compound 37] | A (Fold activation≧300%) | A′ (EC1.5<250 nM)
7 | COCCN(CCOC)c1cc(C(=O)Nc2ccccc2-c2nc3cccnc3s2)nc(-c2ccccc2)c1 [Compound 130] | A (Fold activation≧300%) | A′ (EC1.5<250 nM)
8 | O=C(Nc1ccccc1-c1nc2cccnc2s1)c1ccc(CN2CCOCC2)c(-c2ccccc2)n1 [Compound 77] | B (Fold Activation≧150% and <300%) | A (EC1.5≧250 nM and ≦1 uM)
9 | O=C(Nc1ccccc1-c1nc2cccnc2s1)c1cc(NCc2ccncc2)nc(-c2ccccc2)n1 [Compound 59] | A (Fold activation≧300%) | A (EC1.5≧250 nM and ≦1 uM)
10 | Cc1cccc(-c2nc(OC[C@@H](O)CO)cc(C(=O)Nc3ccccc3-c3nc4cccnc4s3)n2)c1 [Compound 142] | A (Fold activation≧300%) | A (EC1.5≧250 nM and ≦1 uM)
11 | O=C(Nc1ccccc1-c1nc2cccnc2s1)c1cc(NC2CCOC2=O)nc(-c2ccccc2)n1 (stereo not shown) [Compound 91] | A (Fold activation≧300%) | A′ (EC1.5<250 nM)
12 | O=C(Nc1ccccc1-c1nc2cccnc2s1)c1cc(NC2CCN(C(=O)c3ccccc3)CC2)nc(-c2ccccc2)n1 [Compound 136] | B (Fold Activation≧150% and <300%) | A (EC1.5≧250 nM and ≦1 uM)
13 | O=C(Nc1ccccc1-c1nc2cccnc2s1)c1cc(NC(CO)CO)cc(-c2ccccc2)n1 [Compound 128] | A (Fold activation≧300%) | A′ (EC1.5<250 nM)
14 | COCCN1CCN(c2cc(C(=O)Nc3ccccc3-c3nc4cccnc4s3)nc(Cl)n2)CC1 [Compound 4] | A (Fold activation≧300%) | A (EC1.5≧250 nM and ≦1 uM)
15 | Cc1cccc(-c2nc(C(=O)Nc3ccccc3-c3nc4cccnc4s3)cc(N3CCN(C(C)C)CC3)n2)c1 [Compound 138] | A (Fold activation≧300%) | A′ (EC1.5<250 nM)
16 | O=C(Nc1ccccc1-c1nc2cccnc2s1)c1cc(OCCN2CCOCC2)cc(-c2ccccc2)n1 [Compound 13] | A (Fold activation≧300%) | A (EC1.5≧250 nM and ≦1 uM)
17 | O=C(Nc1ccccc1-c1nc2cccnc2s1)c1cc(NC[C@@H](O)CO)nc(-c2ccccc2)n1 [Compound 106] | A (Fold activation≧300%) | A′ (EC1.5<250 nM)
18 | CN(C)c1cc(C(=O)Nc2ccccc2-c2nc3cccnc3s2)nc(-c2ccccc2)n1 [Compound 38] | B (Fold Activation≧150% and <300%) | B (EC1.5>1 and ≦10 uM)
19 | NCCNc1cc(C(=O)Nc2ccccc2-c2nc3cccnc3s2)nc(-c2ccccc2)n1 [Compound 83] | A (Fold activation≧300%) | A (EC1.5≧250 nM and ≦1 uM)
20 | O=C(Nc1ccccc1-c1nc2cccnc2s1)c1cc(NCCNc2ccccc2)nc(-c2ccccc2)n1 [Compound 60] | C (Fold Activation<150%) | C (EC1.5>10 uM)
